Data from BindingDB's records for doi:10.1021/acs.jmedchem.8b01201 (Kezar Life Sciences, 2018).

Legend:
[1] = Inhibition of 20S proteosome beta 2 in human MOLT4 cells by ELISA
[2] = Inhibition of 20S proteosome beta 1 in human MOLT4 cells by ELISA
[3] = target: T1, Proteasome subunit beta type-1 (Mus musculus, UniProt O09061); test: Inhibition of 20S proteosome beta 1 in mouse A20 cells by ELISA
T1 sequence (O09061 whole entry): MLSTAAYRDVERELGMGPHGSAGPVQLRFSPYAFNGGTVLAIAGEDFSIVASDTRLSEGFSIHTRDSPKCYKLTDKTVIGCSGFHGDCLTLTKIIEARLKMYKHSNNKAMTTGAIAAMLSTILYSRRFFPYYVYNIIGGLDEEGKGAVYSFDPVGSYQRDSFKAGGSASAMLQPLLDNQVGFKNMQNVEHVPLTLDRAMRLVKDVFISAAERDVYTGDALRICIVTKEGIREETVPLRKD

[4] = target: Proteasome subunit beta type-2 (Homo sapiens, UniProt P49721); test: Inhibition of 20S proteosome beta 2 in human MOLT4 cells by ELISA
[5] = target: T2, Proteasome subunit beta type-1 (Homo sapiens, UniProt P20618); test: Inhibition of 20S proteosome beta 1 in human MOLT4 cells by ELISA
T2 sequence (P20618 whole entry): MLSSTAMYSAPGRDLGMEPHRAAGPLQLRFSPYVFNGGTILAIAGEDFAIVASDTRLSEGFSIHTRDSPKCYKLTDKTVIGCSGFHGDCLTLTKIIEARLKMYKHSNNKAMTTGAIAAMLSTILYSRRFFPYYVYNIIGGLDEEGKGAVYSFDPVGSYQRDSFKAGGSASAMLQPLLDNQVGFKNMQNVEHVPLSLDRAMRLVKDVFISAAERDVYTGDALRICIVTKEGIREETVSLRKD

[6] = Inhibition of 20S proteosome beta 1 in mouse A20 cells by ELISA

Sequence of Proteasome subunit beta type-2 (P49721 whole entry): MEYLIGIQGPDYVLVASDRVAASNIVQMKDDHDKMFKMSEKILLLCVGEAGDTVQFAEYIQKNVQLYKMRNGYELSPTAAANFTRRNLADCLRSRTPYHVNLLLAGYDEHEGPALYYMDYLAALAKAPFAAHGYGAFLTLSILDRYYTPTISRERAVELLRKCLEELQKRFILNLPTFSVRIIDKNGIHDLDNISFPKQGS

| SMILES | IC50 [1] [µM] | IC50 [2] [µM] | IC50 [3] [µM] | IC50 [4] [µM] | IC50 [5] [µM] | IC50 [6] [µM] |
| --- | --- | --- | --- | --- | --- | --- |
| CC(C)C[C@H](NC(=O)CN1CCCCCC1)C(=O)N[C@@H](Cc1ccccc1)C(=O)N[C@@H](Cc1ccccc1)C(=O)[C@@]1(C)CO1 | – | > 250 | > 250 | – | – | – |
| COc1ccc(C[C@H](NC(=O)[C@@H](C)NC(=O)[C@H]2CC[C@H](O)CC2)C(=O)N[C@@H](Cc2ccccc2)C(=O)[C@@]2(C)CO2)cc1 | – | – | – | > 25 | > 25 | – |
| Cc1ccc(CC[C@H](NC(=O)[C@H](Cc2ccccc2)NC(=O)[C@H](CC(C)C)NC(=O)CN2CCCCCC2)C(=O)[C@@]2(C)CO2)cc1 | – | > 25 | > 25 | 0.413 | – | – |

Continued, values first:

| IC50 [1] [µM] | IC50 [2] [µM] | IC50 [3] [µM] | IC50 [4] [µM] | IC50 [5] [µM] | IC50 [6] [µM] | SMILES |
| --- | --- | --- | --- | --- | --- | --- |
| > 25 | > 25 | – | – | – | – | COc1ccc(C[C@H](NC(=O)[C@@H](C)NC(=O)[C@H]2CC[C@H](O)CC2)C(=O)N[C@@H](CC2=CCCC2)C(=O)[C@@]2(C)CO2)cc1 |
| – | > 10.6 | – | – | – | > 25 | COc1ccc([C@@H](O)[C@H](NC(=O)[C@H](C)NC(=O)CN2CCOCC2)C(=O)N[C@@H](CC2=CCCC2)C(=O)[C@@]2(C)CO2)cc1 [Kzr-616] |
